Source: patent US7297702B2, “Contraception method using competitive progesterone antagonists and novel compounds useful therein” (Schering Aktiengesellschaft, priority 2004, dated 2007)
Several values for one entry are separate records, joined by “and”; a condition that tells them apart may be missing. Identical values can stand only once.

Key:
rat [1] = assay: Dissociation factor: ovulation inhibition test versus implantation inhibition in the rat; assay type: in vivo; conditions: for Dissociation factor: ratio of ovulation-inhibiting dose and implantation inhibiting dose, rat, peroral administration; for peripherally selective effectiveness (endometrium versus hypophysial-ovarian axis): endometrial effect very greatly pronounced, at the same dose at most only a slight central effect
Text: Such competitive progesterone antagonists can also be designated as dissociated, since at a specific threshold dose, although changes of the endometrium are observed, ovulation (central effect) is not inhibited. The ratio of ovulation-inhibiting dose and implantation inhibiting dose (dissociation factor) (as determined in the rat after peroral administration) can be used as a measurement of the dissociation. This ratio varies from species to species but is at least about 30 or higher in a dissociated or competitive progesterone antagonist.
Such competitive progesterone antagonists can also be designated as dissociated, since at a specific threshold dose, changes of the endometrium are observed, but the ovulation (central effect) is not inhibited. The ratio of ovulation-inhibiting and implantation inhibiting (dissociation factor) doses can be used as a measurement for the dissociation. It varies depending on the species and is about. 30 or more for a dissociated competitive progesterone antagonist (in the rat after peroral administration) to be used according to the invention.
To determine the ovulation-inhibiting doses of competitive progesterone antagonists, the ovulation-inhibiting test described below is performed on the rat; the respective abortively effective doses follow from the known (e.g., U.S. Pat. No. 5,095,129) rat abortive test.
Ovulation Inhibition Test on the Rat
For detection of ovulation-inhibiting substances, the rat is well-suited insofar as it spontaneously ovulates and the cycle can easily be observed by means of vaginal smears. This makes it possible to control the course of the test also during the treatment phase.
Female rats weighing 190-210 g, pro dosi 6 animals.
The animals are kept in Macrolon cages in rooms with controlled exposure to light (10 hours of darkness: 14 hours of brightness), fed a standard diet (pelletized rat food) and tap water at will.
The test substances are dissolved in benzyl benzoate/castor oil (1+9 v/v) and the daily dose is administered in a volume of 0.2 ml s.c.
In the oral application, the test substance is suspended in a carrier liquid (85 mg of Myrj® in 100 ml of 0.9% w/v NaCl solution) and the daily dose is administered in a volume of 0.5 ml.
Two cycles are observed before the beginning of the test by means of vaginal smears. Only animals with a regular 4-day cycle are used in the test. The assignment to the treatment groups takes place at random. Beginning in the metestrus, the test substance is administered over 4 days (day 1-4) and the cycle is further controlled.
On day 4 (after the administration), animals, which have an estrus or metestrus at the time of the vaginal smear, are ovariectomized on one side under ether anesthesia. Crush preparations are prepared from the tubes and examined by microscope for the presence of egg cells. On day 5, all animals (intact and unilaterally ovariectomized) are killed with CO2 gas and the tubes are prepared and examined in the same way.
In the individual dosage groups, the percentage of animals in which the ovulation was inhibited is determined.

[2] = Thymolysis test for antiglucocorticoidal effect; assay type: in vivo; conditions: thymolysis test (EP-A-0 283 428)
Text: This is seen from the thymolysis test for antiglucocorticoidal effect (EP-A-0 283 428).

rat [3] = assay: Implantation inhibition (antinidatory effectiveness) in the rat; assay type: in vivo
humans = conditions: 50 mg, given during the late luteal phase; cited from earlier work
[4] = tested on: adult, female bonnet monkeys (Macaca radiata); assay: Weekly s.c. Onapriston in bonnet monkeys: estradiol and progesterone levels (RIA), folliculogenesis and ovulation; assay type: in vivo; conditions: 5 mg and 10 mg per animal s.c. weekly, 2 cycles
Text: (§1) The above-described use of competitive progesterone antagonists is evidenced by tests performed with Onapriston [11β-(4-dimethylaminophenyl)-17α-hydroxy-17β-(3-hydroxy-propyl)-13α-methyl-4,9-gonadien-3-one; EP-A-0129499], a typically competitive progesterone antagonist, on adult, female bonnet monkeys (Macaca radiata).

women = assay: Human Study 3: once-a-week oral onapristone; assay type: in vivo; conditions: once-a-week oral 0.25-50 mg over two cycles
Experimental: Duration of the study: Evaluation of three cycles: pre-treatment, treatment and post-treatment cycles. • Regimen: 18 daily oral administration of 20 mg (group 1), 10 mg (group 2) and 5 mg (group 3) onapristone starting on day 1 of the cycle. c) Evaluation: • RIA, LH, FSH, E2 and progesterone and cortisol during the pre-treatment, treatment and post-treatment cycles. • Evaluation of endometrial biopsies and collection of the uterine fluid (by prevical) on day 16 and day 23 of the treatment cycle (see appendix for details) • Occurrence of menstrual bleeding. Human Study 3: Effects of once-a-week administration of onapristone on ovulation, endometrial morphology and biochemistry a) Objective:
Groups of volunteers: […] (five treatment groups and a control group) of 8-10 women with ligated oviducts.
Duration of the study: Evaluation of four cycles: pre-treatment, two treatment and post-treatment cycles.
Once-a-week oral administration of 50 mg (group 1) 20 mg (group 2), 10 mg (group 3) 2 mg ([…]) and 0.25 mg (group 5), onapristone starting on day 1 of the cycle over the two cycles.
RIA, LH, FSH, E2 and progesterone during the pre-treatment, treatment and post-treatment cycles.
Evaluation of endometrial biopsies and collection of the uterine fluid on day 16 and day 23 of both treatment cycles (see appendix for details).
Occurrence of menstrual bleeding and cycle abnormalities: […]

endometrium = assay: Weekly s.c. Onapriston in bonnet monkeys: endometrial histology (biopsy day 20 of second cycle); assay type: in vivo, Macaca radiata; conditions: both treatment groups (5 mg and 10 mg weekly s.c.), after 7 administrations
Text: as §1

[5] = tested on: adult, female bonnet monkeys (Macaca radiata); assay: Weekly s.c. Onapriston in bonnet monkeys: length of menstrual cycle and menstrual period; assay type: in vivo; conditions: for Length of MC, After-treatment Cycle / Length of MC, Treatment Cycle 1 / Length of MC, Treatment Cycle 2 / Length of MD, After-treatment Cycle / Length of MP, Treatment Cycle 1 / Length of MP, Treatment Cycle 2 / Length of MC, Pretreatment Cycle / Length of MP, Pretreatment Cycle: individual animals; for Length of MC, Pretreatment Cycle / Length of MP, Pretreatment Cycle: pretreatment cycle (baseline)
Text: as §1

`CC#C[C@]1(O)CC[C@H]2[C@@H]3CCC4=CC(=O)CCC4=C3[C@@H](c3ccc(N(C)C)cc3)C[C@@]21C` [RU 486, 11β-[4-N,N-(dimethylamino)phenyl]-17β-hydroxy-17α-propinyl-estra-4,9(10)-dien-3-one] showed a Dissociation factor (rat [1]) of under 10.
With “11β,19-[4-(3-pyridinyl)-o-phenylene]-17β-hydroxy-17α-(3-hydroxyprop-1(Z)-enyl)-4-androsten-3-one [II]” the “peripherally selective effectiveness (endometrium versus hypophysial-ovarian axis)” value (rat [1]) was “surprisingly pronounced peripherally selective effectiveness”, the Dissociation factor (rat [1]) was over 30 and the antiglucocorticoidal effect [2] was “not simultaneously antiglucocorticoidally effective”. For the same compound, the “daily dose still completely implantation-inhibiting effective” value (rat [3]) was 0.3 mg.
In the case of “11β,19-[4-(4-cyanophenyl)-o-phenylene]-17β-hydroxy-17α-(3-hydroxyprop-1(Z)-enyl)-4-androsten-3-one [I]”, the “peripherally selective effectiveness (endometrium versus hypophysial-ovarian axis)” value (rat [1]) is reported as “surprisingly pronounced peripherally selective effectiveness”, the Dissociation factor (rat [1]) is reported as over 100 and the antiglucocorticoidal effect [2] is reported as “not simultaneously antiglucocorticoidally effective”. The “daily dose still completely implantation-inhibiting effective” value (rat [3]) was 0.1 mg.
For `CN(C)c1ccc([C@H]2C[C@]3(C)[C@@H](CC[C@]3(O)CCCO)[C@@H]3CCC4=CC(=O)CCC4=C32)cc1` [Onapriston, 11β-(4-dimethylaminophenyl)-17α-hydroxy-17β-(3-hydroxy-propyl)-13α-methyl-4,9-gonadien-3-one], the effect on menstruation (humans) is given as “induce premature menstruation”, the “folliculogenesis and ovulation (estradiol and progesterone levels)” value [4] is given as “occurred normally in all animals” and the contraception reliability (women) is given as “high contraception reliability”. The “control of the cycle compared to the control group” value (women) was “better control of the cycle”, the tolerance (women) was “high tolerance” and the “endometrial histology in contrast to control animals” value (endometrium) was “atrophied”. The “length of the cycle and the menstrual period relative to the control group” value ([5]; 5 mg and 10 mg per animal s.c. weekly, 2 cycles) was “not changed”, the “Length of MC, After-treatment Cycle” value ([5]; Group 2, 5 mg/week s.c.) was 27 day (2×) and 31 day and the “Length of MC, Treatment Cycle 1” value ([5]; Group 2, 5 mg/week s.c.) was 24 days and 27 days and 26 days. For the same compound, the “Length of MC, Treatment Cycle 2” value ([5]; Group 2, 5 mg/week s.c.) was 39 days and 29 days and 26 days, the “Length of MD, After-treatment Cycle” value ([5]; Group 2, 5 mg/week s.c.) was 4 day (2×) and 3 day and the “Length of MP, Treatment Cycle 1” value ([5]; Group 2, 5 mg/week s.c.) was 2 day and 1 day (2×). For the same compound, the “Length of MP, Treatment Cycle 2” value ([5]; Group 2, 5 mg/week s.c.) was 5 day and 1 day (2×), the “Length of MC, Pretreatment Cycle” value ([5]; Group 2, 5 mg/week s.c.) was 26 days and 28 days and 24 days and the “Length of MP, Pretreatment Cycle” value ([5]; Group 2, 5 mg/week s.c.) was 1 day (2×) and 3 day. The “Length of MC, After-treatment Cycle” value ([5]; Group 3, 10 mg/week s.c.) was 26 days and 48 days and 27 days, the “Length of MC, Treatment Cycle 1” value ([5]; Group 3, 10 mg/week s.c.) was 25 days and 26 days and 28 days and the “Length of MD, After-treatment Cycle” value ([5]; Group 3, 10 mg/week s.c.) was 4 days and 1 days and 3 days. The “Length of MP, Treatment Cycle 1” value ([5]; Group 3, 10 mg/week s.c.) was 3 day and 1 day (2×), the “Length of MP, Treatment Cycle 2” value ([5]; Group 3, 10 mg/week s.c.) was 1 day (2×) and 2 day and the “Length of MC, Treatment Cycle 2” value ([5]; Group 3, 10 mg/week s.c., * = 2 ovulation cycles, bleeding slight after the first cycle) was 53* day and 25 day and 28 day. The “Length of MC, Pretreatment Cycle” value ([5]; Group 3, 10 mg/week s.c.) was 26 days and 24 days and 30 days and the “Length of MP, Pretreatment Cycle” value ([5]; Group 3, 10 mg/week s.c.) was 4 days and 2 days and 3 days.
